From patent publication US7348427B2, “Antipathogenic benzamide compounds” (Genesoft Pharmaceuticals, Inc., priority 2001, dated 2008) come the findings set out here.

Converted amounts (≈) assume the structure as drawn.

The test system of assay [1] is E. faecalis ATCC 29212. In words: MIC, NCCLS broth microdilution assay. It counts as cell-based, Enterococcus faecalis. The conditions noted are these: C = E. faecalis ATCC 29212. The method, then: (§1) Compounds according to this invention were screened for their in vitro activities against selected species of bacteria and fungi. The minimal inhibition concentration (MIC) of these compounds was determined using the National Committee for Clinical Laboratory Standards (NCCLS) broth microdilution assay in microtiter plates, as set forth in: (1) the guidelines of the National. Committee for Clinical Laboratory Standards (NCCLS) Document M7-A4 (NCCLS, 1997); (2) the guidelines of the National Committee for Clinical Laboratory Standards (NCCLS) Document M11-A4 (NCCLS, 1997); and (3) the guidelines and reference method of the National Committee for Clinical Laboratory Standards (NCCLS) Document M27-T (NCCLS, 1995). For antifungal assays, the method recommended in Murray, P R., 1995 Manual of Clinical Microbiology (ASM Press, Washington, D.C.), was employed.
Background: Dilution methods test growth across graded concentrations, often in twofold steps.

The test system of assay [2] is Bacillus cereus (ATCC 11778). Put plainly: MIC, NCCLS broth microdilution assay. The format is cell-based. As to conditions: A = B. cereus ATCC 11778.
Description: (§2) In vitro biological activity data were collected for a variety of microorganisms, including Bacillus cereus (ATCC 11778), Staphylococcus aureus (ATCC 27660, a methicillin resistant strain (MRSA); ATCC 13709, a methicillin sensitive strain (MSSA)); Streptococcus pneumoniae (ATCC 51422, a penicillin resistant strain (PRSP)), Enterococcus faecium (ATCC 51559, a vancomycin resistant strain (VRE)), and Staphylococcus epidermidis (ATCC 12228). Additionally, antifungal activity data were collected for Candida albicans (ATCC 38247).
as §1

Assay [3] concerns Staphylococcus aureus (ATCC 13709, a methicillin sensitive strain (MSSA)). Put plainly: MIC, NCCLS broth microdilution assay. The format is cell-based. The conditions noted are these: E = S. aureus ATCC 13709.
Description: as §2, §1

The test system of assay [4] is Staphylococcus aureus (ATCC 27660, a methicillin resistant strain (MRSA)). In words: MIC, NCCLS broth microdilution assay. The format is cell-based. The conditions noted are these: F = S. aureus ATCC 27660.
Description: as §2, §1

In assay [5] the test system is Candida albicans (ATCC 38247). In words: Antifungal MIC assay. It counts as cell-based. As to conditions: B = C. albicans ATCC 38247.
Description: as §2, §1

In assay [6] the test system is S. pneumoniae ATCC 49619. Put plainly: MIC, NCCLS broth microdilution assay. The format is cell-based, Streptococcus pneumoniae. The conditions noted are these: H = S. pneumoniae ATCC 49619. The method, then:
as §1

[7] abbreviates: Staphylococcus aureus, read-out: Minimum Inhibitory Concentration (MIC).

With `Cn1cc(NC(=O)c2cc(NC(=O)c3ccc(Cl)cc3F)c[nH]2)cc1C(=O)NCCN1CCOCC1` [Compound A-17], the MIC was at most 4 µg/mL in assay [1] (Enterococcus faecalis, ATCC29212, read-out: Minimum Inhibitory Concentration (MIC)); 12 to 32 µg/mL (≈ 23.2 to 61.9 µM) in assay [2] (Bacillus cereus, ATCC11778, read-out: Minimum Inhibitory Concentration (MIC)); 4 to 12 µg/mL (≈ 7.74 to 23.2 µM) in assay [3] (setting [7]); 4 to 12 µg/mL (≈ 7.74 to 23.2 µM) in assay [4] (setting [7]); above 32 µg/mL in assay [5] (Candida albicans, ATCC38247, read-out: Minimum Inhibitory Concentration (MIC)); at most 4 µg/mL in assay [6] (Streptococcus pneumoniae, ATCC49619, read-out: Minimum Inhibitory Concentration (MIC)).
On to `Cn1cc(NC(=O)c2cc(NC(=O)c3ccc(Cl)cc3F)c[nH]2)cc1C(=O)NCCN1CCCC1` [Compound A-19], for which the “Minimum Inhibitory Concentration (MIC)” value in assay [1] is “+++ (+++ = MIC ≦ 4)”; in assay [2] it was “+ (+ = 12 ≦ MIC ≦ 32)”; in assay [3], “++ (++ = 4 < MIC < 12)”; in assay [4] it was “+++ (+++ = MIC ≦ 4)”; in assay [5] it was above 32 µg/mL; in assay [6], “+++ (+++ = MIC ≦ 4)”.
In the case of `CCN(CC)CCNC(=O)c1cc(NC(=O)c2cc(NC(=O)c3ccc(Cl)cc3F)c[nH]2)cn1C` [Compound A-20], the “Minimum Inhibitory Concentration (MIC)” value in assay [1] is “+++ (+++ = MIC ≦ 4)”; in assay [2], “+ (+ = 12 ≦ MIC ≦ 32)”; in assay [3] it was “++ (++ = 4 < MIC < 12)”; in assay [4] it was “++ (++ = 4 < MIC < 12)”; in assay [5], above 32 µg/mL; in assay [6], “+++ (+++ = MIC ≦ 4)”.
As to `Cn1cc(NC(=O)c2cc(NC(=O)c3ccc(Cl)cc3F)c[nH]2)cc1C(=O)NCCN1CCC(O)CC1` [Compound A-23], the “Minimum Inhibitory Concentration (MIC)” value in assay [1] was “+ (+ = 12 ≦ MIC ≦ 32)”; in assay [2] it was “+ (+ = 12 ≦ MIC ≦ 32)”; in assay [3] it was “+ (+ = 12 ≦ MIC ≦ 32)”; in assay [4], “+ (+ = 12 ≦ MIC ≦ 32)”; in assay [5], above 32 µg/mL; in assay [6], “+++ (+++ = MIC ≦ 4)”.
On to `Cn1cc(NC(=O)c2cc(NC(=O)c3cc(NC(=O)c4ccc(Cl)cc4F)c[nH]3)cn2C)cc1C(=O)NCCc1cccnc1` [Compound A-24], for which the “Minimum Inhibitory Concentration (MIC)” value is “++ (++ = 4 < MIC < 12)” in assay [1]; “+++ (+++ = MIC ≦ 4)” in assay [2]; above 32 µg/mL in assay [3]; “+++ (+++ = MIC ≦ 4)” in assay [4]; above 32 µg/mL in assay [5]; “+++ (+++ = MIC ≦ 4)” in assay [6].
Regarding `Cn1cc(NC(=O)c2cc(NC(=O)c3ccc(Cl)cc3F)c[nH]2)cc1C(=O)NCCc1ccncc1` [Compound A-25], the “Minimum Inhibitory Concentration (MIC)” value in assay [1] is “+++ (+++ = MIC ≦ 4)”; in assay [2], “++ (++ = 4 < MIC < 12)”; in assay [3] it was “+++ (+++ = MIC ≦ 4)”; in assay [4], “+++ (+++ = MIC ≦ 4)”; in assay [5], above 32 µg/mL; in assay [6], “+++ (+++ = MIC ≦ 4)”.
For `Cn1cc(NC(=O)c2cc(NC(=O)c3cc(NC(=O)c4cc(NC(=O)c5ccc(Cl)cc5F)c[nH]4)cn3C)cn2C)cc1C(=O)NCCN1CCOCC1` [Compound A-27], the “Minimum Inhibitory Concentration (MIC)” value in assay [1] is “++ (++ = 4 < MIC < 12)”; in assay [2] it was “+++ (+++ = MIC ≦ 4)”; in assay [3] it was “+ (+ = 12 ≦ MIC ≦ 32)”; in assay [4], “+ (+ = 12 ≦ MIC ≦ 32)”; in assay [5], above 32 µg/mL; in assay [6], “+++ (+++ = MIC ≦ 4)”.
Consider `Cn1cc(NC(=O)c2cc(NC(=O)c3cc(NC(=O)c4ccc(Cl)cc4F)c[nH]3)cn2C)cc1C(=O)NCCN1CCSC1` [Compound A-29], for which the “Minimum Inhibitory Concentration (MIC)” value was “+ (+ = 12 ≦ MIC ≦ 32)” in assay [1]; “+++ (+++ = MIC ≦ 4)” in assay [2]; “+++ (+++ = MIC ≦ 4)” in assay [3]; “++ (++ = 4 < MIC < 12)” in assay [4]; above 32 µg/mL in assay [5]; “+++ (+++ = MIC ≦ 4)” in assay [6].
With `Cn1cc(NC(=O)c2cc(NC(=O)c3cc(NC(=O)c4ccc(Cl)c(Cl)c4)c[nH]3)cn2C)cc1C(=O)NCCN1CCOCC1` [Compound A-30], the “Minimum Inhibitory Concentration (MIC)” value in assay [1] was “+++ (+++ = MIC ≦ 4)”; in assay [2] it was “+++ (+++ = MIC ≦ 4)”; in assay [3], “+++ (+++ = MIC ≦ 4)”; in assay [4] it was “+++ (+++ = MIC ≦ 4)”; in assay [5], above 32 µg/mL; in assay [6], “+++ (+++ = MIC ≦ 4)”.
In the case of `Cn1cc(NC(=O)c2cc(NC(=O)c3cc(NC(=O)c4ccc(F)cc4F)cn3C)cn2C)cc1C(=O)NCCCN1CCCCC1` [Compound B-4], the “Minimum Inhibitory Concentration (MIC)” value in assay [1] is “++ (++ = 4 < MIC < 12)”; in assay [2], “++ (++ = 4 < MIC < 12)”; in assay [3] it was “++ (++ = 4 < MIC < 12)”; in assay [4], “++ (++ = 4 < MIC < 12)”; in assay [5] it was above 32 µg/mL; in assay [6] it was “++ (++ = 4 < MIC < 12)”.
Consider `Cn1cc(NC(=O)c2cc(NC(=O)c3cc(NC(=O)c4ccc(F)cc4F)cn3C)cn2C)cc1C(=O)NCCN1CCCC1` [Compound B-5], for which the “Minimum Inhibitory Concentration (MIC)” value in assay [1] is “+++ (+++ = MIC ≦ 4)”; in assay [2] it was “+++ (+++ = MIC ≦ 4)”; in assay [3], “+++ (+++ = MIC ≦ 4)”; in assay [4], “+++ (+++ = MIC ≦ 4)”; in assay [5] it was above 32 µg/mL; in assay [6], “+++ (+++ = MIC ≦ 4)”.
Regarding `Cn1cc(NC(=O)c2cc(NC(=O)c3cc(NC(=O)c4ccc(F)cc4F)cn3C)cn2C)cc1C(=O)NCCCNC1CCCCC1` [Compound B-7], the “Minimum Inhibitory Concentration (MIC)” value was “+++ (+++ = MIC ≦ 4)” in assay [1]; “+++ (+++ = MIC ≦ 4)” in assay [2]; “+++ (+++ = MIC ≦ 4)” in assay [3]; “+++ (+++ = MIC ≦ 4)” in assay [4]; above 32 µg/mL in assay [5]; “+++ (+++ = MIC ≦ 4)” in assay [6].
Consider `Cn1cc(NC(=O)c2cc(NC(=O)c3cc(NC(=O)c4ccc(F)cc4F)cn3C)cn2C)cc1C(=O)NCCCN1CCOCC1` [Compound B-8], for which the “Minimum Inhibitory Concentration (MIC)” value in assay [1] is “++ (++ = 4 < MIC < 12)”; in assay [2] it was “++ (++ = 4 < MIC < 12)”; in assay [3] it was “++ (++ = 4 < MIC < 12)”; in assay [4], “++ (++ = 4 < MIC < 12)”; in assay [5] it was above 32 µg/mL; in assay [6], “++ (++ = 4 < MIC < 12)”.
As to `Cn1cc(NC(=O)c2ccc(F)cc2F)cc1C(=O)Nc1cc(C(=O)Nc2cc(C(=O)OCCN3CCCCC3)n(C)c2)n(C)c1` [Compound B-9], the “Minimum Inhibitory Concentration (MIC)” value in assay [1] is “+++ (+++ = MIC ≦ 4)”; in assay [2], “+++ (+++ = MIC ≦ 4)”; in assay [3], “+++ (+++ = MIC ≦ 4)”; in assay [4], “+++ (+++ = MIC ≦ 4)”; in assay [5], above 32 µg/mL; in assay [6], “+++ (+++ = MIC ≦ 4)”.
As to `Cn1cc(NC(=O)c2ccc(F)cc2F)cc1C(=O)Nc1cc(C(=O)Nc2cc(C(=O)OCCN3CCOCC3)n(C)c2)n(C)c1` [Compound B-10], the “Minimum Inhibitory Concentration (MIC)” value is “+++ (+++ = MIC ≦ 4)” in assay [1]; “+++ (+++ = MIC ≦ 4)” in assay [2]; “+ (+ = 12 ≦ MIC ≦ 32)” in assay [3]; “+ (+ = 12 ≦ MIC ≦ 32)” in assay [4]; above 32 µg/mL in assay [5]; “+++ (+++ = MIC ≦ 4)” in assay [6].
